Read-outs that look alike come from different tables or passages of the source.
Legend:
[1] = test system: neurons; conditions: in vitro, activation of the EP2 receptors; cited from earlier work
[2] = test system: C57/B6 mice exposed to TBI; experiment: Silver staining for axon degeneration after TBI; format: in vivo; conditions: 3 weeks after TBI, 5 mg/kg twice daily started 24 hours after injury; 5 mg/kg
Experimental: 8 week old C57/B6 mice were exposed to sham-injury or TBI. Twice daily treatment with 5 mg/kg (+)-SW033291, 5 mg/kg (−)-SW033291, or vehicle was started 24 hours after injury and continued throughout the duration of the experiment. Animals were sacrificed by transcardial perfusion 3 weeks after TBI or sham-injury, and fixed brains were processed for silver staining. […] Individual mouse data points are shown on the graph. Data was analyzed using two-way repeated measures ANOVA; * p<0.05, ** p<0.01. All data is mean±SEM.

[3] = cited from earlier work

Compound: CCCC1([C@H](O)C/C=C/[C@H]2[C@H](O)CC(=O)[C@@H]2CCCCCCC(=O)OC)CCC1 [butaprost]
- protection of neurons from amyloid peptide neurotoxicity [1]: protected neurons from amyloid 0-peptide neurotoxicity in vitro

Compound: CCCC[S+]([O-])c1sc2nc(-c3cccs3)cc(-c3ccccc3)c2c1N (single isomer, unassigned; (-)) [(−)-SW033291, reference compound]
- silver staining (axon degeneration) [2]: protection was not noted

Compound: CCCCC[C@H](O)/C=C/[C@H]1[C@H](O)CC(=O)[C@@H]1C/C=C\CCCC(=O)O [PGE2, prostaglandin E2]
- half-life ([3]; following intravenous injection): less than 1 min.
- half-life ([3]; in the circulatory system): approximately 30 sec.
